These results are taken from the METLIN SMRT retention time set (Domingo-Almenara et al. 2019).

This series is described as follows: gradient 5% acetonitrile 3 min, to 50% in 2 min, to 85% in 15 min, held 3 min, 100 µL/min. The settings on record: column: Zorbax Extend-C18 2.1 x 50 mm; eluents: water / acetonitrile, 0.1% formic acid. In outline:
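Over 3 months, pure standards in mixtures of ~100 molecules were run by HPLC coupled to a quadrupole time-of-flight mass spectrometer in positive and negative ionization mode. The column was a Zorbax Extend-C18 (2.1 × 50 mm, 1.8 μm) at 100 μL/min, eluted with water and acetonitrile each holding 0.1% formic acid, with 40 μL dead and 900 μL dwell volumes. Retention time was determined from adduct peaks chosen by software and checked manually.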
The molecule `COc1cccc(N2CCN(C(=O)c3cn(-c4ccc(NC(C)=O)cn4)cn3)CC2)c1` registered an RP-LC retention time of 680 s.

`CCn1ncn2cc(S(=O)(=O)NC(C)c3ccccc3)cc2c1=O` (stereo not drawn) showed an RP-LC retention time of 838 s.

`CCCNC(=O)C1CCCN(c2nc3ncn(CC(=O)NCc4ccccc4)c(=O)c3s2)C1` (stereo not drawn) gave an RP-LC retention time of 669 s.

In turn, `COc1ccc(Cl)cc1NC(=O)c1coc(NC(=O)C2CC2)n1` displayed an RP-LC retention time of 770 s.

The molecule `Cn1nccc1-c1cccc(-c2noc(-c3ccccn3)n2)c1` showed an RP-LC retention time of 818 s.

For the molecule `COc1cc(CNC(=O)C23CCC=C2N(C2CCCC2)C(=O)CC3)cc(OC)c1` (stereo not drawn), the RP-LC retention time amounted to 752 s.

Molecule `Cc1noc(-c2ccc(OC3CN(C(=O)NCC(C)C)C3)cc2)n1` had an RP-LC retention time of 781 s.

The molecule `Clc1cc(Cl)cc(-c2ccc(CNCc3cccnc3)o2)c1` gave an RP-LC retention time of 733 s.

The molecule `O=C(Cn1ccn2nc(-c3ccccc3)c(CO)c2c1=O)N1CCN(c2ccccc2)CC1` came in with an RP-LC retention time of 800 s.

Molecule `COc1ccc(N2CCN(CCNC(=O)C3CCCN(c4cc(=O)n(C)c(=O)n4C)C3)CC2)cc1` (stereo not drawn) gave an RP-LC retention time of 583 s.

Molecule `O=C(Cn1cnc2nc(N3CCCC(C(=O)NC4CC4)C3)sc2c1=O)Nc1cccc(Cl)c1` (stereo not drawn) registered an RP-LC retention time of 665 s.

The molecule `Cc1ccc2[nH]cc(CCN3CC(C(=O)Nc4ccc(F)cc4F)CC3=O)c2c1` (stereo not drawn) displayed an RP-LC retention time of 835 s.

Turning to `COc1ccc(NC(=O)CN2CCc3[nH]c4c(C)ccc(F)c4c(=O)c3C2)cc1OC`, the RP-LC retention time was 1050 s.

Take `O=C(CCSc1ccccc1)N1CCN(c2ccc(-c3ccccn3)nn2)CC1`: the RP-LC retention time came to 644 s.

Regarding `Cc1ccc(C)c(NC(=O)Cc2c(C(=O)O)c(C)cn2C)c1`, the RP-LC retention time was found to be 795 s.

As for `Cc1cc(=O)n(CC(=O)Nc2cccc(Br)c2)c(N2CCOCC2)n1`, the RP-LC retention time was determined as 705 s.

The molecule `O=C(Oc1ccccc1)N1CCC(CNC(=O)C2(c3ccccc3)CCOCC2)CC1` showed an RP-LC retention time of 816 s.

Consider `Cc1noc2nc(C)n(CC(=O)Nc3ccc(F)cc3)c(=O)c12`, for which the RP-LC retention time turned out to be 765 s.

The molecule `Cc1ccc(C(=O)Nc2nc(-c3ccc(C(C)(C)C)cc3)cs2)cc1` returned an RP-LC retention time of 1370 s.

With `Cc1ccc(CNC(=O)Cn2ncc3c(N4CCN(c5ccccn5)CC4)ncnc32)cc1`, the RP-LC retention time turned out to be 615 s.

As for `Cc1ccccc1-n1c(/C=C\c2ccccn2)nc2ccccc2c1=O`, the RP-LC retention time stood at 948 s.

`O=C(c1ccc(Nc2nc3ccccc3n3nnnc23)cc1)N1CCN(c2ccccn2)CC1` registered an RP-LC retention time of 661 s.

With `Cc1nn(-c2nc(-c3ccc(Cl)cc3)cs2)c(C)c1CC(=O)N1CCCCC1C` (stereo not drawn), the RP-LC retention time is 1310 s.

On to `O=S(=O)(NCC1CCCO1)c1ccc(Cl)c(-c2nnc(-c3ccccc3)o2)c1` (stereo not drawn), for which the RP-LC retention time came out at 914 s.

On to `COc1cc(NC(=O)NCCc2cn(C)c3ncccc23)cc(OC)c1`, for which the RP-LC retention time is 657 s.

As for `Cc1ccc(C(=O)N2CC3CN(S(=O)(=O)c4cccc(F)c4)CC(C2)O3)s1`, the RP-LC retention time amounted to 821 s.

The molecule `Cc1ccc2c(=O)c(C(=O)N3CCCC3)cn(CC(=O)NCc3ccc4c(c3)OCO4)c2n1` registered an RP-LC retention time of 625 s.

Molecule `COc1ccc2c(c1)C1(CCN(C(=O)c3ccc(C)c(F)c3)C1)C(=O)N2C` (stereo not drawn) displayed an RP-LC retention time of 610 s.

`COc1ccc(OC)c(S(=O)(=O)N2CCCC3(CC2)CNC(=O)O3)c1` (stereo not drawn): the RP-LC retention time was 685 s.

In the case of `Cc1sc(NC(=O)COc2ccc(Cl)cc2)nc1-c1ccc2c(c1)N(C)C(=O)CO2`, the RP-LC retention time was 1040 s.

Consider `CN1C(=O)c2cc(C(=O)NCCCc3ccccc3)nn2CC1(C)C(=O)NCc1ccccc1` (stereo not drawn), for which the RP-LC retention time was found to be 814 s.

Take `COc1ccc(OC)c(S(=O)(=O)N2CCCC(C(=O)NCc3ccncc3)C2)c1` (stereo not drawn): the RP-LC retention time turned out to be 604 s.

Take `CC(C)CNC(=O)N(C)Cc1nc2cc(C(=O)NC(C)C)ccc2n1C`: the RP-LC retention time is 593 s.

The molecule `COc1ccc(NC(=O)N2c3ccccc3CC2c2nc(C3CC3)no2)c(C)c1` (stereo not drawn) came in with an RP-LC retention time of 978 s.

Molecule `Cc1ccc(NS(=O)(=O)c2cc3n(c2)CCCNC3=O)c(C)c1` gave an RP-LC retention time of 678 s.

Regarding `C=CCn1c2ccccc2c2nnc(SC(CC)C(=O)Nc3nc(-c4ccccc4)cs3)nc21` (stereo not drawn), the RP-LC retention time amounted to 1190 s.

For the molecule `COc1cc(Cl)ccc1C(=O)NC1CCN(c2cc(-c3ccc(F)cc3)[nH]n2)C1` (stereo not drawn), the RP-LC retention time stood at 807 s.

`COc1cc(NC(=O)C(C)Oc2ccc(=O)n(-c3ccc(F)cc3)n2)cc(OC)c1OC` (stereo not drawn) showed an RP-LC retention time of 719 s.

`Nc1ccc(S(=O)(=O)NCC2CCCCO2)cc1` (stereo not drawn) registered an RP-LC retention time of 733 s.

`Cc1nn(-c2ccc(F)cc2)c2nc(N3CCCC(C(=O)NCc4ccc(F)cc4)C3)sc12` (stereo not drawn) yielded an RP-LC retention time of 1110 s.

In turn, `Cc1ccc(N2CCN(C(=O)c3cc(C)n4nccc4n3)CC2)cc1` displayed an RP-LC retention time of 818 s.

The molecule `COc1cccc(NC(=O)N2CCCC(C)(C(=O)NCc3ccccc3C)C2)c1` (stereo not drawn) displayed an RP-LC retention time of 890 s.

In the case of `Cc1ccc(-c2csc3c(=O)n(CC(=O)OC(C)(C)C)cnc23)cc1`, the RP-LC retention time came to 1090 s.

On to `CCCN1C(=O)COc2ccc(-c3noc(-c4ccc(Cl)cc4OC)n3)cc21`, for which the RP-LC retention time was determined as 1260 s.

Take `COc1ccc(-c2nnc(N3CCC(C(=O)NCC4CCCCC4)CC3)o2)cc1`: the RP-LC retention time stood at 887 s.

For the molecule `COc1c(C(=O)N2CCN(c3ccccc3F)CC2)sc2cccc(F)c12`, the RP-LC retention time was found to be 1100 s.

The molecule `O=C(C(=O)N1CCN(c2ccccc2)CC1)c1c[nH]c2ccccc12` yielded an RP-LC retention time of 845 s.

For the molecule `CCc1ccc(NC(=O)C2CCN(S(=O)(=O)c3ccc4c(c3)CCCC(=O)N4)CC2)cc1`, the RP-LC retention time amounted to 834 s.

In the case of `COCCn1cc(CCNC(=O)Nc2cccc(Cl)c2F)c2cccnc21`, the RP-LC retention time stood at 798 s.

For the molecule `Cc1nc(-c2ccc(N3CCN(C(=O)c4ccoc4)CC3)nc2)sc1C`, the RP-LC retention time was 738 s.

`COc1cc(OC)c(NC(=O)Cn2nc3cc(C)nc(-c4ccc(F)cc4)n3c2=O)cc1Cl` had an RP-LC retention time of 899 s.

Regarding `Cc1ncc([N+](=O)[O-])n1CCOC(N)=O`, the RP-LC retention time was 624 s.

As for `Cc1ccc(NC(=O)N2CCCC2c2nc(-c3cccc(C)c3)no2)cc1` (stereo not drawn), the RP-LC retention time is 1060 s.

Molecule `Cc1noc(-c2ccnc(-n3cnc(C(=O)NC4CCCCCC4)c3)c2)n1` showed an RP-LC retention time of 915 s.

The molecule `CCCC(=O)Nc1ccc(-c2nc(Cn3nc(C)cc3C)c(C)o2)cc1` had an RP-LC retention time of 818 s.

`COC(=O)c1ccccc1NC(=O)CSc1cc(N2CCN(c3ccccc3F)CC2)ncn1` came in with an RP-LC retention time of 1170 s.

As for `CCNC(=O)c1nc(C(=O)NC(C)c2ccc(C)cc2)cs1` (stereo not drawn), the RP-LC retention time was 843 s.

In turn, `O=C(c1ccc2ccnc(N3CCN(c4ccc(F)cc4)CC3)c2c1)N1CCCCCC1` had an RP-LC retention time of 816 s.

As for `CCC(=O)N1c2ccc(S(=O)(=O)CCC(=O)N3CCCc4ccccc43)cc2CC1C` (stereo not drawn), the RP-LC retention time amounted to 881 s.

Take `CCc1cc(=O)n(CC(=O)Nc2ccc(F)cc2C)c(N)n1`: the RP-LC retention time was found to be 599 s.

`CCCOc1nc2ccccc2nc1N1CCCC(C(=O)NC(C)c2ccccc2)C1` (stereo not drawn) showed an RP-LC retention time of 1230 s.

`Cn1c(=O)n(CCN2CCCCC2)c(=O)c2c1nc1n2CCCN1c1ccc(Br)cc1` had an RP-LC retention time of 678 s.

Take `NC(=O)[C@@H]1C[C@H](Oc2ccccc2)CN1C1CCCC1`: the RP-LC retention time amounted to 584 s.

`COC(=O)Nc1nc(CC(=O)Nc2ccc(OC(F)(F)F)cc2)cs1` registered an RP-LC retention time of 766 s.

With `O=C(CCC1CCCN(S(=O)(=O)c2ccccc2)C1)N1CCN(c2ccccn2)CC1` (stereo not drawn), the RP-LC retention time is 657 s.

Turning to `COc1ccc2[nH]c(=O)c(CCC(=O)NC3CCN(Cc4ccccc4)CC3)cc2c1`, the RP-LC retention time stood at 596 s.

In turn, `COc1ccccc1Nc1c(-c2ccc(N(C)C)cc2)nc2cnccn12` yielded an RP-LC retention time of 833 s.

The molecule `Cc1ccc(NC(=O)NCC(c2cccnc2)c2cn(C)c3ccccc23)c(C)c1` (stereo not drawn) had an RP-LC retention time of 720 s.

On to `O=C(c1ccc2c(c1)CCCN2S(=O)(=O)c1ccccc1)N1CCCC1`, for which the RP-LC retention time is 852 s.

In turn, `COc1ccc(N2C(=O)CCC(C(=O)NC(C)C)C2c2ccc(OC)c(OC)c2)cc1` (stereo not drawn) displayed an RP-LC retention time of 674 s.

On to `CCc1nc2cc(-c3noc(-c4cccc(C#N)c4)n3)ccc2o1`, for which the RP-LC retention time turned out to be 1070 s.

Turning to `CCOc1ccc(-c2nc(CNC(=O)Nc3ccccc3OCC)c(C)o2)cc1`, the RP-LC retention time turned out to be 1080 s.

Take `COC1=CC(=O)O[C@H](/C=C/c2ccc3c(c2)OCO3)C1`: the RP-LC retention time was 809 s.

In turn, `O=C(Nc1ccc2c(c1)OCO2)C1COCC(=O)N1Cc1ccccc1` (stereo not drawn) displayed an RP-LC retention time of 688 s.

`O=C(CN1C(=O)c2ccccc2C1=O)Nc1nnc(-c2ccc3c(c2)CCCC3)o1` gave an RP-LC retention time of 856 s.

Take `Cc1cc(C)cc(-n2ncc3c(N4CCC(C(N)=O)CC4)ncnc32)c1`: the RP-LC retention time worked out at 724 s.

`CCOCC(=O)N1CC(c2nc(-c3cccnc3)no2)C2(CCOCC2)C1` (stereo not drawn): the RP-LC retention time was 622 s.

For the molecule `CC(C)c1ccc(CN2CC(c3nc(CCN(C)S(C)(=O)=O)no3)C2)cc1`, the RP-LC retention time was found to be 664 s.
